Source: patent US20030176401A1, “Sodium salt of an azo derivative of 5-aminosalicylic acid” (priority 2000, published 2003)

What was measured:
[1] = Azoreduction after oral administration: distribution of product and UR-12715 in faeces, study in monkeys; format: in vivo, Cynomolgus monkeys; settings: for relative percentage of Product (administered compound) found in faeces: 100 mg/kg p.o. (UR-12746 suspension in 0.2% CMC; sodium salt capsules)
Method: (§1) The level of azoreduction has been studied by determining the distribution of UR-12746 and UR-12715 in faeces after the oral administration of UR-12746 and its sodium salt in rats and monkeys.
6 Cynomolgus monkeys were used for this study. Each test product was administered to three monkeys, respectively. UR-12746 was administered as a suspension in 0.2% CMC, at a dose of 100 mg/kg p.o. (1000 mg UR-12746/10 mL of 0.2% CMC), whereas the sodium salt of UR-12746 (polymorph I) was administered as individualized capsules for each animal at a dose of 100 mg/kg p.o.
The monkeys were placed in metabolic cages, so that urine and faeces could be separately collected, and faeces corresponding to the periods 0-24 h, 24-48 h and 48-72 h were collected.
The treatment of the faeces and the determination of the amount of administered product and metabolite present in the samples were carried out following the same procedure described above for the study in rats.
As in the rat study, the azoreduction level was determined from the amounts of product and UR-12715 recovered in faeces.

[2] = Azoreduction after oral administration: distribution of product and UR-12715 in faeces, study in rats; format: in vivo, Sprague-Dawley rats; settings: for relative percentage of Product (administered compound) found in faeces: female rats, 50 mg/kg oral, suspension in 0.2% CMC, mean of 3; for azoreduction after oral administration: rats
Method: as §1
For the study in rats, 6 female Sprague-Dawley rats weighing between 169 and 185 g were used. UR-12746 and the sodium salt of UR-12746 (polymorph I) were orally administered to three rats each as a suspension in 0.2% carboxymethylcelulose (CMC), at a dose of 50 mg/kg (100 mg of test compound/10 mL of 0.2% CMC).
The rats were placed in metabolic cages, so that urine and faeces could be separately collected, and faeces were collected during the periods 0-24 h and 24-48 h. The faeces collected in the same period were weighted and crumbled. Water was added (2 mL of water/g of faeces) and the paste obtained was stirred to homogeneity. The total weight of the homogenate was then determined.
An aliquot of this homogenate (about 2 g) was mixed with 4 mL of MeOH, stirred in a Vortex and centrifuged for 10 minutes at 4500 rpm (3000 g). The supernatant was filtered through a 0.45 μm filter, and the concentrations of the administered product and metabolite present in the sample were determined by a HPLC chromatographic method with gradient elution and ultraviolet detection, under the conditions detailed below:
The level of azoreduction was determined from the amounts of product and UR-12715 recovered in faeces. The relative percentage of the amounts corresponding to the product (UR-12746 or sodium salt of UR-12746) and to the metabolite (UR-12715) found in faeces after oral administration are shown in Table 3. Results are given as the mean values.

| relative percentage of Product (administered compound) found in faeces ([1]; faeces 0-24 h) | relative percentage of Product (administered compound) found in faeces ([1]; faeces 0-72 h) | relative percentage of Product (administered compound) found in faeces ([1]; faeces 24-48 h) | relative percentage of Product (administered compound) found in faeces ([1]; faeces 48-72 h) | azoreduction (metabolization in the colon) after oral administration [1] | relative percentage of Product (administered compound) found in faeces ([2]; faeces 0-24 h) | relative percentage of Product (administered compound) found in faeces ([2]; faeces 0-48 h) | relative percentage of Product (administered compound) found in faeces ([2]; faeces 24-48 h) | azoreduction after oral administration [2] | SMILES |
| --- | --- | --- | --- | --- | --- | --- | --- | --- | --- |
| >99% | >99% | >99% | >99% | no azoreduction | 78.8% | 76.1% | 52.5% | 24% | Cc1nc2cnccc2n1CC1CCN(C(=O)/C=C(/c2ccccc2)c2ccc(N=Nc3ccc(O)c(C(=O)O)c3)cc2)CC1 [UR-12746, (Z)-2-hydroxy-5-[[4-[3-[4-[(2-methyl-1H-imidazo[4,5-c]pyridin-1-yl)methyl]-1-piperidinyl]-3-oxo-1-phenyl-1-propenyl]phenyl]azo]benzoic acid] |
| 12.6% | 9.7% | 6.5% | 5.0% | around 90% | 21.1% | 20.8% | 12.1% | around 79% | Cc1nc2cnccc2n1CC1CCN(C(=O)/C=C(/c2ccccc2)c2ccc(N=Nc3ccc(O)c(C(=O)[O-])c3)cc2)CC1.[Na+] [Sodium salt of UR-12746, sodium salt of (Z)-2-hydroxy-5-[[4-[3-[4-[(2-methyl-1H-imidazo[4,5-c]pyridin-1-yl)methyl]-1-piperidinyl]-3-oxo-1-phenyl-1-propenyl]phenyl]azo]benzoic acid] |
